What was measured:
CYP2D6*2 = details: transiently expressed CYP2D6*2, bufuralol 1′‐hydroxylation; ref Sakuyama et al. (2008); cited from earlier work
[1] = system: CYP2D6^Pro34Ser, Ser486Thr
CYP2C8 = biological target: T1, CYP2C8 (Homo sapiens, UniProt P10632); details: wild‐type CYP2C8*1A; V max/K M
T1 sequence (P10632 1-490): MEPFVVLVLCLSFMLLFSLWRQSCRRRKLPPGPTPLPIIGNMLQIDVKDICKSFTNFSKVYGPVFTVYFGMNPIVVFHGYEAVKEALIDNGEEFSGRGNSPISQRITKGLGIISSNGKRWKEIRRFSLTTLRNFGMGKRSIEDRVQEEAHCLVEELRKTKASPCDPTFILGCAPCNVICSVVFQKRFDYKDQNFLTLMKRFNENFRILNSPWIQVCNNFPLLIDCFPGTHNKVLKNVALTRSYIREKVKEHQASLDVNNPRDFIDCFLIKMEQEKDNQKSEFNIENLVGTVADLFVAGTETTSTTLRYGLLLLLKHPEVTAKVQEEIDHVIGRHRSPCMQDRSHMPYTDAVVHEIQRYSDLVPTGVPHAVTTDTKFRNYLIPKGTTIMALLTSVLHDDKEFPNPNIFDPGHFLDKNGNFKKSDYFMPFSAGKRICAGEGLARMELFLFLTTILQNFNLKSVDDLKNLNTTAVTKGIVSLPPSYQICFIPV

CYP2C9 = CYP2C9 (Homo sapiens, UniProt P11712); details: wild‐type CYP2C9*1A; V max/K M
pooled HLM = system: pooled HLM; set-up: method as in Kamdem et al. 2011; details: pooled HLM treated with ketoconazole; ref Kamdem et al. 2011; cited from earlier work
CYP2C8*2 = system: CYP2C8*2; set-up: method as in Kaspera et al. 2010; details: E. coli‐expressed CYP2C8*2 vs wild‐type; M‐1 and M‐23 formation; ref Kaspera et al. 2010; cited from earlier work
CYP2C8*4 = system: CYP2C8*4; set-up: method as in Kaspera et al. (2010); details: recombinant CYP2C8*4; ref Kaspera et al. (2010); cited from earlier work
[2] = system: wild‐type CYP450s 1A2, 2C8, 2C9, 2C19, 2D6, 3A4, and 3A5; assay: Metabolite identification, wild‐type CYP450‐overexpressing HEK293 microsomes; assay type: in vitro ADME, human; details: compound presented as substrate to overexpressing CYP450 microsomes
UGT2B17 = details: HLM panel; ref Sun et al. 2010; cited from earlier work
[3] = substrate: C=C1C[C@@H]2[C@H](CC[C@]3(C)C(=O)CC[C@@H]23)[C@@]2(C)C=CC(=O)C=C12; assay: cells, lysate or membranes named; details: other: CYP2C8*3; normalized to relative CYP450 content; pH 7.4; 37.0 °C

CYP2C9, sequence (P11712 whole entry): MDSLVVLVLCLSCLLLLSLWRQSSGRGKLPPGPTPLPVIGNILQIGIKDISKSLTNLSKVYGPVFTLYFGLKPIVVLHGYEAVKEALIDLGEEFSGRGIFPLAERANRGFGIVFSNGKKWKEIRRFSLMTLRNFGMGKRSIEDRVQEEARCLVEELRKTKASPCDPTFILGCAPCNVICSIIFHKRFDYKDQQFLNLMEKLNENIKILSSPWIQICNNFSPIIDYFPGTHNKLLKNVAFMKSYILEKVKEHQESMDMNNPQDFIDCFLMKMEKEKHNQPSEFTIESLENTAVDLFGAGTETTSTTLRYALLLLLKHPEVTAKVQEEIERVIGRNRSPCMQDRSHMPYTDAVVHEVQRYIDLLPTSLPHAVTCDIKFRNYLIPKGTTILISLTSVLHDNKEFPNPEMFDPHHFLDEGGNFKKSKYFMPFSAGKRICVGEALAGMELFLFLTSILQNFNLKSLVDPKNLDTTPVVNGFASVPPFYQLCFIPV

CCc1cccc2cc(C(O)CNC(C)(C)C)oc12 (stereo not drawn) [bufuralol]
decrease in substrate affinity (CYP2D6*2): two‐fold

C=C1C[C@@H]2[C@H](CC[C@]3(C)C(=O)CC[C@@H]23)[C@@]2(C)C=CC(=O)C=C12 [exemestane, 6‐methyleneandrosta‐1,4‐diene‐3,17‐dione]
CLINT ([1]; CYP2D6*10, V max/K M): 38 nL/min/mg | V max ([1]; CYP2D6*10, normalized to relative CYP450 content): 39 ± 6 pmol/min/mg | increase of the K M value for EXE substrate ([1]; CYP2D6*10 vs CYP2D6*1): 82% | decrease in clearance compared to CYP2D6*1 ([1]; human, microsomes, pH 7.4): 56% | CLINT (CYP2C8): 194 nL/min/mg | CLINT (CYP2C9): 27 nL/min/mg

CC(=O)N1CCN(c2ccc(OCC3COC(Cn4ccnc4)(c4ccc(Cl)cc4Cl)O3)cc2)CC1 (stereo not drawn) [ketoconazole]
effect on 6‐HME formation (pooled HLM): strongly inhibits

COCc1c(C(C)C)nc(C(C)C)c(/C=C/[C@@H](O)C[C@@H](O)CC(=O)O)c1-c1ccc(F)cc1 [cerivastatin]
increase in the sum of cerivastatin metabolite clearance (CYP2C8*2): 53% | increase of combined clearance of the M‐1 and M‐23 cerivastatin metabolites compared to wild‐type (CYP2C8*4): approximately 2.5 fold

C=C1C[C@H]2[C@@H]3CC[C@@H](O)[C@@]3(C)CC[C@@H]2[C@@]2(C)C=CC(=O)C=C12 [17α‐DHE, 17α‐hydroxy‐6‐methyleneandrosta‐1,4‐dien‐3‐one]
secondary metabolite formation [2]: not observed

C=C1C[C@H]2[C@@H]3CC[C@H](O)[C@@]3(C)CC[C@@H]2[C@@]2(C)C=CC(=O)C=C12 [17β‐DHE, 17β‐hydroxy‐6‐methyleneandrosta‐1,4‐dien‐3‐one]
glucuronidation (V max/K M) lower in UGT2B17‐null homozygotes (*2/*2) compared to wild‐type homozygotes (*1/*1) (UGT2B17): 36 fold | secondary metabolite formation [2]: not observed

C[C@]12C=CC(=O)C=C1C(CO)=C[C@@H]1[C@@H]2CC[C@]2(C)C(=O)CC[C@@H]12 [6‐HME, 6‐hydroxymethylandrosta‐1,4,6‐triene‐3,17‐dione]
secondary metabolite formation [2]: not observed

B1: CYP2C8^Arg139Lys, Lys399Arg (Homo sapiens; K399R/R139K) (protein)
chain: MEPFVVLVLCLSFMLLFSLWRQSCRRRKLPPGPTPLPIIGNMLQIDVKDICKSFTNFSKVYGPVFTVYFGMNPIVVFHGYEAVKEALIDNGEEFSGRGNSPISQRITKGLGIISSNGKRWKEIRRFSLTTLRNFGMGKKSIEDRVQEEAHCLVEELRKTKASPCDPTFILGCAPCNVICSVVFQKRFDYKDQNFLTLMKRFNENFRILNSPWIQVCNNFPLLIDCFPGTHNKVLKNVALTRSYIREKVKEHQASLDVNNPRDFIDCFLIKMEQEKDNQKSEFNIENLVGTVADLFVAGTETTSTTLRYGLLLLLKHPEVTAKVQEEIDHVIGRHRSPCMQDRSHMPYTDAVVHEIQRYSDLVPTGVPHAVTTDTKFRNYLIPKGTTIMALLTSVLHDDREFPNPNIFDPGHFLDKNGNFKKSDYFMPFSAGKRICAGEGLARMELFLFLTTILQNFNLKSVDDLKNLNTTAVTKGIVSLPPSYQICFIPV
Vmax [3]: 0.000144 µmol/min/mg

— PMC5464343 (Pharmacology Research & Perspectives, 2017)
